Assay results published in ChEMBL document CHEMBL1201862, “PubChem BioAssay data set” (2004).
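Cultured in 96-well plates, cells were exposed to test compound for 48 hours across five concentrations. GI50 = concentration required for 50% inhibition of growth.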 Activity calls are given as the source filed them. Rule as the data show it: active = GI50 up to about 1.1 µM and inactive = higher.

Tests used:
Experiment in all cases: growth of human tumour cells (NCI), 48 h
786-0 = tested on: 786-0
CAKI-1 = tested on: CAKI-1
DU-145 = tested on: DU-145
HCT-15 = tested on: HCT-15
HL-60 = tested on: HL-60
HOP-92 = tested on: HOP-92
IGROV-1 = tested on: IGROV-1
K562 = tested on: K562
KM12 = tested on: KM12
LOX IMVI = tested on: LOX IMVI
MDA-MB-231 = tested on: MDA-MB-231
MDA-N = tested on: MDA-N
NCI-H226 = tested on: NCI-H226
NCI/ADR-RES = tested on: NCI/ADR-RES
OVCAR-3 = tested on: OVCAR-3
OVCAR-4 = tested on: OVCAR-4
OVCAR-8 = tested on: OVCAR-8
SF-539 = tested on: SF-539
SK-MEL-2 = tested on: SK-MEL-2
U-251 = tested on: U-251

Compound | GI50 (786-0) | GI50 (CAKI-1) | GI50 (DU-145) | GI50 (HCT-15) [µM] | GI50 (HL-60) | GI50 (HOP-92) | GI50 (IGROV-1) | GI50 (K562) | GI50 (KM12) | GI50 (LOX IMVI) | GI50 (MDA-MB-231) | GI50 (MDA-N) | GI50 (NCI-H226) | GI50 (NCI/ADR-RES) | GI50 (OVCAR-3) | GI50 (OVCAR-4) | GI50 (OVCAR-8) | GI50 (SF-539) | GI50 (SK-MEL-2) | GI50 (U-251)
c1ccc(C(NCC2CCO2)(c2ccccc2)c2ccccc2)cc1 (stereo not given) | 20 µM (inactive) | 23.9 µM (inactive) | 27.7 µM (inactive) | 16.4 | 19.3 µM (inactive) | 13.9 µM (inactive) | 15.2 µM (inactive) | 34.1 µM (inactive) | 15 µM (inactive) | 28.6 µM (inactive) | 28.3 µM (inactive) | 24.3 µM (inactive) | 11.3 µM (inactive) | 14.1 µM (inactive) | 18.5 µM (inactive) | 16.2 µM (inactive) | 12.6 µM (inactive) | 17.8 µM (inactive) | 21.1 µM (inactive) | 23 µM (inactive)
CN1CCc2c(sc3nc(S)nc(S)c23)C1 | > 100 µM (inactive) | > 100 µM (inactive) | > 100 µM (inactive) | > 100 | > 100 µM (inactive) | > 100 µM (inactive) | > 100 µM (inactive) | > 100 µM (inactive) | > 100 µM (inactive) | > 100 µM (inactive) | 39.5 µM (inactive) | > 100 µM (inactive) | > 100 µM (inactive) | > 100 µM (inactive) | > 100 µM (inactive) | > 100 µM (inactive) | > 100 µM (inactive) | > 100 µM (inactive) | > 100 µM (inactive) | 72.4 µM (inactive)
OC(c1ccoc1)c1cc2ccccc2s1 (stereo not given) | > 10 µM (inactive) | > 10 µM (inactive) | > 10 µM (inactive) | > 10 | > 10 µM (inactive) | > 10 µM (inactive) | > 10 µM (inactive) | > 10 µM (inactive) | > 10 µM (inactive) | > 10 µM (inactive) | > 10 µM (inactive) | > 10 µM (inactive) | > 10 µM (inactive) | > 10 µM (inactive) | > 10 µM (inactive) | > 10 µM (inactive) | > 10 µM (inactive) | > 10 µM (inactive) | > 10 µM (inactive) | > 10 µM (inactive)
COc1cc(OC)c2c(c1)OC(c1ccccc1)CC2=O (stereo not given) [DIMETHYLPINOCEMBRIN] | > 10 µM (inactive) | > 10 µM (inactive) | > 10 µM (inactive) | > 10 | > 10 µM (inactive) | > 10 µM (inactive) | > 10 µM (inactive) | > 10 µM (inactive) | > 10 µM (inactive) | > 10 µM (inactive) | > 10 µM (inactive) | > 10 µM (inactive) | > 10 µM (inactive) | > 10 µM (inactive) | > 10 µM (inactive) | > 10 µM (inactive) | > 10 µM (inactive) | > 10 µM (inactive) | > 10 µM (inactive) | > 10 µM (inactive)
